Data as given in PubChem BioAssay (NCI).
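Five concentrations, 48 hours, 96-well plates. GI50: concentration for 50% inhibition of growth. TGI: total growth inhibition.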

What was measured:
Assay in all cases: NCI-60 cell line screen, 48 h
[1] = test system: MDA-MB-231 breast
[2] = test system: RPMI-8226 leukemia
[3] = test system: SF-295 CNS
[4] = test system: T-47D breast
[5] = test system: TK-10 renal
[6] = test system: HCC-2998 colon
[7] = test system: KM20L2 colon
[8] = test system: LXFL 529 NSCLC
[9] = test system: M19-MEL melanoma
[10] = test system: MALME-3M melanoma

SMILES | GI50 [1] [µM] | TGI [1] [µM] | GI50 [2] [µM] | TGI [2] [µM] | GI50 [3] [µM] | TGI [3] [µM] | GI50 [4] [µM] | TGI [4] [µM] | GI50 [5] [µM] | TGI [5] [µM] | GI50 [6] [µM] | TGI [6] [µM] | GI50 [7] [µM] | TGI [7] [µM] | GI50 [8] [µM] | TGI [8] [µM] | GI50 [9] [µM] | TGI [9] [µM] | TGI [10] [µM] | GI50 [10] [µM]
Cc1cc(N2CCCCC2)nc(NCc2cc(Nc3ccnc4cc(Cl)ccc34)ccc2F)n1 | 1.81 | 3.5 | 1.88 | 4.55 | 1.32 | 2.7 | 1.26 | 2.99 | 1.96 | 3.67 |  |  |  |  |  |  |  |  |  | 
CN(C)C=O.CN(C)C=O.CN1C(C(=O)Nc2ccccn2)=C([O-])c2ccccc2S1(=O)=O.CN1C(C(=O)Nc2ccccn2)=C([O-])c2ccccc2S1(=O)=O.[Cu+2] |  |  |  | > 100 |  | > 100 |  |  |  | > 100 | > 100 | > 100 | > 100 | > 100 | 27.8 | > 100 | 31 | > 100 | > 100 | 
COc1ccc2c(c1)C(=O)c1c-2n(CCCCl)c(=O)c2cc([N+](=O)[O-])ccc12 |  | > 46 | 0.075 | 1.6 | < 0.01 | 0.21 |  | > 100 | 0.639 |  | 0.996 | > 28.6 |  |  |  |  |  |  | 0.461 | 0.0533
NS(=O)(=O)c1ccc(C(=O)O)cc1 |  | > 100 |  | > 100 |  | > 100 |  | > 100 |  | > 100 |  |  |  |  |  |  |  |  | > 100 | 
Cc1nc2ccccc2c(=O)n1Nc1ccc(C(=O)O)cc1 |  |  |  | > 100 |  | > 100 |  |  |  |  |  | > 100 |  | > 100 |  |  |  | > 100 | > 100 | 
O=C(O)\C=C/C=C/C=C/C=C/C(=O)O |  |  |  | > 100 |  | > 100 |  |  |  |  |  | > 100 |  | > 100 |  | > 100 |  |  | > 100 | 
O=C1CC(c2ccccc2)NCCCCN2CC(CN1)C(C(O)c1ccccc1)C2=O (stereo unspecified) |  | > 100 |  |  |  | > 100 |  | > 100 |  | > 100 |  | > 100 |  |  |  |  |  |  | > 100 | 
Nc1ccc([As](=O)(O)O)cc1 |  | > 100 |  |  |  | > 100 |  | > 100 |  | > 100 |  | > 100 |  |  |  |  |  |  | > 100 | 
Cc1cccc(NC(N)=S)c1 |  |  |  |  |  |  |  |  |  | > 100 |  | > 100 |  |  |  | > 100 |  | > 100 | > 100 | 
O=C(Nc1ccc(-n2ccc3c(NC(=O)c4ccccc4)ncnc32)cc1)Nc1ccc(Cl)c(C(F)(F)F)c1 | 1.55 | 3.66 | 1.03 | 2.84 | 1.41 | 3.38 | 2.27 | 5.73 | 1.8 | 4.95 | 2.47 | 6.54 |  |  |  |  |  |  | 4.54 | 1.94
CC1(C)CCc2cc3c(cc2O1)OC(C)(C)CC3=O |  |  |  | > 100 |  | > 100 |  |  |  |  |  |  |  |  |  | > 100 |  | > 100 |  | 
CC(C)(c1ccccc1)c1ccc(Oc2ccc3c(c2)-c2nc-3nc3[nH]c(nc4nc(nc5[nH]c(n2)c2ccc(Oc6ccc(C(C)(C)c7ccccc7)cc6)cc52)-c2cc(Oc5ccc(C(C)(C)c6ccccc6)cc5)ccc2-4)c2ccc(Oc4ccc(C(C)(C)c5ccccc5)cc4)cc32)cc1 |  |  |  | > 100 |  |  |  |  |  | > 100 |  | > 100 |  | > 100 |  | > 100 |  | > 100 | > 100 | 
CCc1cc(C)cc2[n+]1CC=C2C |  |  |  |  |  | > 100 |  |  |  | > 100 |  | > 100 |  | > 100 |  | > 100 |  | > 100 | > 100 | 
COc1ccc(C(=O)NNC(=O)c2nsc3ccccc23)cc1 |  |  |  | > 100 |  |  |  |  |  | > 100 |  | > 100 |  | > 100 |  | > 100 |  | > 100 |  | 
